Source: BindingDB's records for doi:10.1016/0960-894X(96)00063-7 (1996)

Biological target: Squalene monooxygenase (Sus scrofa)
Test: Compound was evaluated for the inhibition of pig liver microsomal squalene epoxidase.

IC50: 100 nM
Structure (SMILES): CCN(C/C=C/C#CC(C)(C)C)Cc1cccc(NC[Si](C)(C)c2ccccc2C)c1 [(3-{[((E)-6,6-Dimethyl-hept-2-en-4-ynyl)-ethyl-amino]-methyl}-phenyl)-[(dimethyl-o-tolyl-silanyl)-methyl]-amine]
